Test results published in patent US20110076274A1, “MATERIALS AND METHODS RELATING TO A G-PROTEIN COUPLED RECEPTOR” (priority 2008, published 2011).
Where two headings read alike, the source gives them in different places.

Assays:
human osteoclasts = assay: Cell polarisation (F-actin rings) and resorption by human osteoclasts; assay type: cell-based
Source text: Number of F-actin rings in osteoclast cultures, expressed as percentage of vehicle (0.1% DMSO) control±SEM (n=4-7 experiments with five replicates for each). ** P<0.01 compared to control, ANOVA with Dunnett's multiple comparison test.

MDA-MB231 subclone = assay: Boyden chamber chemotaxis assay, Protocol I (ligand concentration gradient); assay type: cell-based, human; conditions: serum starved cells; test drug (1 μM per Protocol I) in 0.01% DMSO in lower wells; 4 hours
Protocol: 10 μl of the resulting cell suspension was transferred to a haemocytometer and the number of cells per ml of suspension was calculated from the counted cell number. Serum free medium was added to the cell suspension in a quantity necessary to bring the suspension to a cell number of 1×10^6 cells per ml. […]

GPR55 [1] = target: T1, GPR55 (Homo sapiens, UniProt Q9Y2T6); conditions: cited from earlier work; for EC50: source per value in footnotes (Johns 2007, Ryberg 2007, Brown 2007), read-out: GTPγS EC50
T1 sequence (Q9Y2T6 whole entry): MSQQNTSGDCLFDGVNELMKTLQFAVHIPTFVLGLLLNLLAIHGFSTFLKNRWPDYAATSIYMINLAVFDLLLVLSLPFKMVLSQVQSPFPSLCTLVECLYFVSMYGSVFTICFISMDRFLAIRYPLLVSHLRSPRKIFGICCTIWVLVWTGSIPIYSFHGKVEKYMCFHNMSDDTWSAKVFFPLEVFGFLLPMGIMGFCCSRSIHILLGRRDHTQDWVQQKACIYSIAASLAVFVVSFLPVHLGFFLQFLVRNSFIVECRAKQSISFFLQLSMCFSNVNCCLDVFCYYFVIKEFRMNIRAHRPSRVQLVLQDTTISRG

GPR55 [2] = target: T1, GPR55; conditions: cited from earlier work
CB2 [3] = target: T2, CB2 (Homo sapiens, UniProt P34972); conditions: cited from earlier work
T2 sequence (P34972 whole entry, species assumed): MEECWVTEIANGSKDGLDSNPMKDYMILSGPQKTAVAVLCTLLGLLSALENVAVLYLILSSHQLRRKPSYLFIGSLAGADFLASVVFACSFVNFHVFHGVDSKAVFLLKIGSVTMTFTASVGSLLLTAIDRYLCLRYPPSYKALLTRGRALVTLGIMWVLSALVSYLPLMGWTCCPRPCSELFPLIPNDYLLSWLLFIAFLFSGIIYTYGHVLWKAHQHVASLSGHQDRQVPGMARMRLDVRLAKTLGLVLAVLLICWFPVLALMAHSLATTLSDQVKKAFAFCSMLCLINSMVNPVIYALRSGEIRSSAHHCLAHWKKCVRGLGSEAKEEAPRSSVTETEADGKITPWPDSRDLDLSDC

MDA-MB231 = assay: Boyden chamber chemotaxis assay, CBD as chemoattractant (FIG. 8); assay type: cell-based, human; conditions: serum starved cells; CBD with 0.01% DMSO
Protocol: (§1) Cells used for all chemotaxis assays were bathed in their respective serum-free media and incubated for 19 hours prior to experimentation. The serum starved cells were washed with 5 ml PBS and dissociated from their growth plate using 5 ml of non-enzymatic cell dissociation solution. 5 ml of the respective serum free medium was added after dissociation of the cells, and the cell suspension was transferred to a universal container and centrifuged at 2000 rpm for 5 minutes. The supernatant fluid was discarded and the remaining cell pellet was re-suspended in 2 ml of serum free medium.
(§2) 10 μl of the resulting cell suspension was transferred to a haemocytometer and the number of cells per ml of suspension was calculated from the counted cell number. Serum free medium was added to the cell suspension in a quantity necessary to bring the suspension to a cell number of 1×10^6 cells per ml.
Solutions of 10% FBS (with 0.01% DMSO vehicle), 0.01% DMSO vehicle control and 1 μM of test drug (O-1602 in 0.01% DMSO vehicle), were prepared. […]
(§3) Migrated cells were counted using a Leitz microscope. Individual wells and their borders were visualised using a 10× objective lens and cells were then counted using a 40× objective lens. Cells found in one quarter of three non-overlapping 40× fields within each migration well were counted. The same fields were chosen in every well counted. […]

MDA-MB231 cells = assay: Boyden chamber migration towards FBS, Protocol II (pre-treatment of cells); assay type: cell-based, human; conditions: for Tumour cell chemotaxis (migration) to FBS after pre-incubation: 1 μM pre-incubation 30 minutes, 10% FBS, no compound gradient, 4 hours
Protocol: as §1, §2
(§4) Two aliquots of the 1×10^6 cells/ml, cell suspension were prepared, and quantities of 0.1% DMSO and […] (both with 0.1% DMSO vehicle) were added to one aliquot each, to bring the cell suspension concentrations to 0.01% DMSO and 1 μM test compound (with 0.01% DMSO vehicle). The cell suspensions were incubated with each compound for 30 minutes at 37° C. in 5% CO2. […]
as §3
The results for all assays done with each individual drug type were pooled by calculating the mean number of cells migrating in 0.01% DMSO vehicle control wells. The cell number for each individual well was then expressed as a percentage of the vehicle mean.

MDA-MB-231 cells [4] = assay: Cultrex Cell Invasion Assay towards FBS; assay type: cell-based, human; conditions: CBD 1 μM pre-incubation; 24 hours
Protocol: (§5) Cell were cultured to 80% confluence then serum starved overnight prior to beginning the assay. On ice, a 0.5×BME stock solution was prepared from the 5× stock in a conical tube and inverted to mix. 100 μl of BME stock solution was aliquoted into each well of the 24 well plate and the chamber incubated at 37° C. overnight. The following morning cells were harvested, washed once using 1× wash buffer, counted, and re-suspended to a density of 5×10^5 cells ml^−1. The top chamber was then carefully aspirated, taking care not to let chambers dry out, and 100 μl of cells per well added to the top chamber. 500 μl of media per well (with or without chemoattractant) was then added to the lower wells of the chamber. The chamber was then assembled and incubated at 37° C. in a humidified environment for 24 hours. The following day the upper chamber was carefully aspirated and washed with 100 μl of 1× wash buffer, and lower wells washed with 500 μl of wash buffer. 12 μl of Calcein-AM solution was added to 12 mL of cell dissociation fluid, and 500 μl of this solution added to the lower chamber. The chamber was then re-assembled and incubated at 37° C. for one hour. The upper chamber was then removed, and dissolved Calcein-AM was read at 485 nm excitation, 520 nm emission.

[5] = system: control (empty vector transfected) MCF7 cells; assay: Cultrex Cell Invasion Assay, empty vector transfected MCF7; assay type: cell-based, human
Protocol: as §5, with “emission. […]” for “emission.”

[6] = system: GPR55 over-expressing MCF7 cells; assay: Cultrex Cell Invasion Assay, GPR55 over-expressing MCF7; assay type: cell-based, human
Protocol: as §5, with “emission. […]” for “emission.”

MDA-MB-231 cells [7] = assay: alamarBlue assay of cell viability; assay type: cell-based, human
CB1 [8] = target: T3, CB1 (Homo sapiens, UniProt P21554); conditions: cited from earlier work
T3 sequence (P21554 whole entry, species assumed): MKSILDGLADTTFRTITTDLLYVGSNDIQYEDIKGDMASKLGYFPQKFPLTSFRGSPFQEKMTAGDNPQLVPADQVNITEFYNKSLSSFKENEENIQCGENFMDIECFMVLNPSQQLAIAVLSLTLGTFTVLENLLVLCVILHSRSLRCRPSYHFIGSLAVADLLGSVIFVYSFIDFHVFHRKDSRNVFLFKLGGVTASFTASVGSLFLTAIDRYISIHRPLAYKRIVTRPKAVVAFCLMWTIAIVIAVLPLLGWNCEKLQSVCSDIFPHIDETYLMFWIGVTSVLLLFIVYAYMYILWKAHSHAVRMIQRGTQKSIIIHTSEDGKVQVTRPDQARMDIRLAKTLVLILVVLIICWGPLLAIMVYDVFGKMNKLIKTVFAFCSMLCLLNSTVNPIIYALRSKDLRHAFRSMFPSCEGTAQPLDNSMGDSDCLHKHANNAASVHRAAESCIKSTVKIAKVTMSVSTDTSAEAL

GPR55 [9] = target: T1, GPR55; conditions: footnote of Table 1
CB1 [10] = target: T3, CB1; conditions: Ryberg et al., 2007, read-out: GTPγS EC50; cited from earlier work
CB2 [11] = target: T2, CB2; conditions: Ryberg et al., 2007, read-out: GTPγS EC50; cited from earlier work
[12] = system: vector transfected MCF7 cells; assay: Boyden chamber chemotaxis assay, vector transfected MCF7; assay type: cell-based, human; conditions: LPI pre-incubation 1 μM
Protocol: as §1, §2, §4

[13] = system: MCF7 cells transiently over-expressing GPR55; assay: Boyden chamber chemotaxis assay, GPR55 over-expressing MCF7; assay type: cell-based, human; conditions: LPI pre-incubation 1 μM
Protocol: as §1, §2, §4

GPR55 [14] = target: T1, GPR55; conditions: Oka et al., 2007, read-out: ERK Phosphorylation EC50; cited from earlier work
MG-63 cells = assay: Endocannabinoid levels in MG-63 cells treated with PTH; assay type: cell-based, human
Protocol: Cells were washed in PBS and treated for 90 minutes with 200 ug/ml LPS. Values represent the mean±SEM from 3 separate donors. […] Levels of anandamide were undetectable in two control samples which precludes statistical analysis. (C) 2-AG levels in MG-63 cells treated with PTH. Cells were treated for the times indicated with 40 nM or 100 nM PTH. The results are expressed as percentage of control and are the means±SEM (n=2-4 experiments, duplicate samples for each), ** P<0.01 compared to control, ANOVA with Dunnett's multiple comparison test.

CCCCC/C=C\C/C=C\C/C=C\C/C=C\CCCC(=O)OC(CO)CO [2-AG]
Resorptive activity (human osteoclasts; 10 nM and 100 nM): significant increase
Cell polarisation i.e. number of F-actin rings (human osteoclasts; 10 nM and 100 nM, 5 days): significant increase
Stimulatory effect on polarisation and resorption at higher concentration (human osteoclasts; 1 μM): lost

CCCCC/C=C\C/C=C\C/C=C\C/C=C\CCCC(=O)NCCO [AEA, anandamide]
Cell migration compared to vehicle control (chemoattractant effect) (MDA-MB231 subclone): significant increase in cell number
F-actin ring number (human osteoclasts; 10 nM to 1 μM): did not result in a significant change
Resorption (human osteoclasts; 10 nM to 1 μM): significantly stimulate
EC50 (GPR55 [1]): 18 nM
Drug action on receptors: GPR55 (GPR55 [2]): Agonist
Drug action on receptors: CB2 (CB2 [3]): Agonist

C=C(C)[C@@H]1CCC(C)=C[C@H]1c1c(O)cc(CCCCC)cc1O [CBD, Cannabidiol]
Tumour cell migration compared to control (chemoattractant effect) (MDA-MB231): no effect on tumour cell migration
Tumour cell chemotaxis (migration) to FBS after pre-incubation (MDA-MB231 cells): significantly inhibits
Effect on LPI-increased chemotaxis to FBS (MDA-MB231 cells; co-incubation LPI (1 μM) combined with CBD (1 μM)): prevented
Tumour cell invasion towards FBS after pre-incubation (MDA-MB-231 cells [4]): significantly attenuated
Basal invasion [5]: no effect
FBS-induced invasion [6]: significantly inhibited
Cytotoxic action (cell viability) (MDA-MB-231 cells [7]; 1 μM treatment for 24 hours (invasion assay)): no cytotoxic action
Cytotoxic action (cell viability) (MDA-MB-231 cells [7]; concentrations up to 10 μM, treatment for 4 hours (migration assay)): no cytotoxic action
IC50 (GPR55 [1]; antagonist, Brown, 2007, read-out: GTPγS IC50): 350 nM
Drug action on receptors: GPR55 (GPR55 [2]): Antagonist^2
Drug action on receptors: CB1 (CB1 [8]): Antagonist^7

CCCCCCC(C)(C)c1ccc([C@@H]2C[C@H](O)CC[C@H]2CCCO)c(O)c1 [CP55940, (−)-cis-3-[2-hydroxy-4-(1,1-dimethylheptyl)phenyl]-trans-4-(3-hydroxypropyl)cyclohexanol]
Drug action on receptors: GPR55 (GPR55 [2]): agonists

CCCn1c(C)c(C(=O)c2cccc3ccccc23)c2ccccc21 [JWH015]
EC50 (GPR55 [1]): 4 nM
Drug action on receptors: GPR55 (GPR55 [2]): Agonist

C=C(C)[C@@H]1CCC(C)=C[C@H]1c1c(C)cc(O)cc1O [O-1602]
Selectivity for GPR55 versus CB1 and CB2 (in words) (GPR55 [9]): Compounds such as O-1602 and LPI are therefore thought to be relatively selective GPR55 agonists, whilst AEA has a broad specificity.
Cell migration compared to vehicle control (chemoattractant effect) (MDA-MB231 subclone): significant increase in cell migration
EC50 (CB1 [10]): > 30000 nM
EC50 (CB2 [11]): > 30000 nM
Drug action on receptors: GPR55 (GPR55 [2]): Agonist
Drug action on receptors: CB1 (CB1 [8]): No action^3
Drug action on receptors: CB2 (CB2 [3]): No action

CCCCCc1cc(O)c2c(c1)OC(C)(C)[C@@H]1CCC(C)=C[C@@H]21 [THC, Δ-9-Tetrahydrocannabinol]
Drug action on receptors: GPR55 (GPR55 [2]): agonists

lysophosphatidylinositol [LPI]
Selectivity for GPR55 versus CB1 and CB2 (in words) (GPR55 [9]): Compounds such as O-1602 and LPI are therefore thought to be relatively selective GPR55 agonists, whilst AEA has a broad specificity.
Tumour cell chemotaxis (migration) to FBS after pre-incubation (MDA-MB231 cells): significantly increases
Migration towards FBS [12]: unaffected
FBS-induced migration [13]: enhanced
EC50 (GPR55 [14]): ~200 nM
Drug action on receptors: GPR55 (GPR55 [2]): Agonist^6

B1: PTH: PTH, 40 nM or 100 nM, activates the PTH receptor (peptide, UniProt P01270 32-115, looked up)
Parathyroid hormone: SVSEIQLMHNLGKHLNSMERVEWLRKKLQDVHNFVALGAPLAPRDAGSQRPRKKEDNVLVESHEKSLGEADKADVNVLTKAKSQ
modifications: Parathyroid hormone
Levels of 2-AG detected in MG-63 cells (MG-63 cells; prolonged treatment with 40 nM or 100 nM PTH): significant increase
Levels of anandamide detected in MG-63 cells (MG-63 cells; prolonged treatment with PTH, data not shown): no change
